In patent publication US9475766B2, “Substituted aromatic sulfur compounds and methods of their use” (Cephalon, Inc., priority 2011, dated 2016):

How the values were obtained:
Format in all cases: cell-based
[1] = system: SU86 pancreatic cancer cell line (Su.86.86); assay: Cell survival and adhesion assay (luciferase), SU86; conditions: 5 hours, SU86 cells overlayed onto human mesothelial cell monolayers, read-out: relative reduction in Luciferase activity, SU86 10 μM
Procedure: (§1) SU86 is a pancreatic cancer cell line. HT29 is a colon cancer cell line. BxPC3 is a pancreatic cell line. A2780 is an ovarian cancer cell line.
(§2) BxPc-3 and Su.86.86 pancreatic and HT-29 colon and A2780 ovarian cancer cell lines were purchased from ATCC and cultured in DMEM supplemented with 10% fetal bovine serum, glutamine, penicillin, and streptomycin. All cells were cultured at 37° C. in a humidified incubator in a 5% CO2 atmosphere. The cancer cell lines were transduced with a retrovirus containing pLuc-puro, a constitutive luciferase reporter and selected in […] media. Transient transfection of a full-length human c-FLIP construct in the vector pcDNA3 was performed as previously described. Scaife et al. Cancer Research 2002, 62: 6870-78.
(§3) Pancreatic cancer cell cultures (BxPc-3 and Su.86.86) and colon cancer (HT-29) and ovarian cancer (A2780) cells that were stably transfected with a firefly luciferase construct were transiently suspended with trypsin-PBS. 10^5 cells were overlayed onto confluent monolayers of human mesothelial cells in 96-well plates while simultaneously adding various concentrations of compounds of the invention or DMSO for 5 hours. The non-adherent cells were carefully washed away from the wells twice with 100 μl/well of blocking buffer (1% BSA in PBS) and twice again with ice-cold PBS. Adherent and surviving cells were detected by luciferase activity in a luminometer as follows. The cells were lysed in 0.1% TritonX-100, 25 mM Gly-Gly (7.8), MgSO4, 4 mM EGTA, 1 mM DTT. The total protein concentration was normalized with lysis buffer. 50 μl of cell lysate was added per well of a 96-well microtiter plate. 50 μl of luciferin substrate (Promega) was added per well and then the light output determined in a luminometer.

[2] = system: HT29 colon cancer cell line; assay: Cell survival and adhesion assay (luciferase), HT29; conditions: HT-29, 5 hours, HT29 cells overlayed onto human mesothelial cell monolayers, read-out: relative reduction in Luciferase activity, HT29 10 μM
Procedure: as §1, §2, §3

[3] = system: BxPC3 pancreatic cell line; assay: Cell survival and adhesion assay (luciferase), BxPC3; conditions: BXPC-3, 5 hours, BxPC3 cells overlayed onto human mesothelial cell monolayers, read-out: relative reduction in Luciferase activity, BxPC3 10 μM
Procedure: as §1, §2, §3

[4] = system: A2780 ovarian cancer cell line; assay: Cell survival and adhesion assay (luciferase), A2780; conditions: 5 hours, A2780 cells overlayed onto human mesothelial cell monolayers, read-out: relative reduction in Luciferase activity, A2780 10 μM
Procedure: as §1, §2, §3

| SMILES | inhibition at 10 µM [1] [%] | inhibition at 10 µM [2] [%] | inhibition at 10 µM [3] [%] | inhibition at 10 µM [4] [%] |
| --- | --- | --- | --- | --- |
| CC(C)(C(=O)O)c1ccc(S(=O)(=O)/C=C/C#N)cc1 [Example 1, 2-[4-((E)-2-Cyano-ethenesulfonyl)-phenyl]-2-methyl-propionic acid] | 10 to 50 | 10 to 50 | < 10 | < 10 |
| CC(C)(C(=O)O)c1cccc(S(=O)(=O)/C=C/C#N)c1 [Example 2, 2-[3-((E)-2-Cyano-ethenesulfonyl)-phenyl]-2-methyl-propionic acid] | < 10 | 10 to 50 | 10 to 50 | < 10 |
| CC(C)(C(=O)N1CCOCC1)c1ccc(S(=O)(=O)/C=C/C#N)cc1 [Example 3, (E)-3-[4-(1,1-Dimethyl-2-morpholin-4-yl-2-oxo-ethyl)-benzenesulfonyl]-acrylonitrile] | < 10 | < 10 | 10 to 50 | 10 to 50 |
| COc1cccc(NC(=O)C(C)(C)c2ccc(S(=O)(=O)/C=C/C#N)cc2)c1 [Example 25, 2-[4-((E)-2-Cyano-ethenesulfonyl)-phenyl]-N-(3-methoxy-phenyl)-isobutyramide] | 50 to 85 |  | 50 to 85 | > 85 |
| CC(C)(C(=O)NCc1ccc(S(N)(=O)=O)cc1)c1ccc(S(=O)(=O)/C=C/C#N)cc1 [Example 26, 2-[4-((E)-2-Cyano-ethenesulfonyl)-phenyl]-N-(4-sulfamoyl-benzyl)-isobutyramide] | < 10 | < 10 | < 10 |  |
| CC(C)(C(=O)NCc1ccc(S(C)(=O)=O)cc1)c1ccc(S(=O)(=O)/C=C/C#N)cc1 [Example 27, 2-[4-((E)-2-Cyano-ethenesulfonyl)-phenyl]-N-(4-methanesulfonyl-benzyl)-isobutyramide] | < 10 | 10 to 50 | < 10 |  |
| CC(C)(C(=O)N1CCCCC1)c1ccc(S(=O)(=O)/C=C/C#N)cc1 [Example 28, (E)-3-[4-(1,1-Dimethyl-2-oxo-2-piperidin-1-yl-ethyl)-benzenesulfonyl]-acrylonitrile] | 10 to 50 | > 85 | 50 to 85 |  |
| CC(C)(C(=O)N[C@H](CO)c1ccccc1)c1ccc(S(=O)(=O)/C=C/C#N)cc1 [Example 29, 2-[4-((E)-2-Cyano-ethenesulfonyl)-phenyl]-N—((S)-2-hydroxy-1-phenyl-ethyl)-isobutyramide] | < 10 | 50 to 85 | < 10 |  |
| CC(C)(C(=O)N[C@H]1CCCCNC1=O)c1ccc(S(=O)(=O)/C=C/C#N)cc1 [Example 30, 2-[4-((E)-2-Cyano-ethenesulfonyl)-phenyl]-N—((S)-2-oxo-azepan-3-yl)-isobutyramide] | < 10 | 50 to 85 | < 10 |  |
| COCCOCc1ccc(NC(=O)C(C)(C)c2ccc(S(=O)(=O)/C=C/C#N)cc2)cc1 [Example 31, 2-[4-((E)-2-Cyano-ethenesulfonyl)-phenyl]-N-[4-(2-methoxy-ethoxymethyl)-phenyl]-isobutyramide] | 10 to 50 | 50 to 85 | 50 to 85 |  |
| CC(C)(C)OC(=O)NCCNC(=O)C(C)(C)c1ccc(S(=O)(=O)/C=C/C#N)cc1 [Example 32, (2-{2-[4-((E)-2-Cyano-ethenesulfonyl)-phenyl]-2-methyl-propionylamino}-ethyl)-carbamic acid tert-butyl ester] | 10 to 50 | 50 to 85 | 10 to 50 |  |
| CC(C)(C)OC(=O)NCCCCCCNC(=O)C(C)(C)c1ccc(S(=O)(=O)/C=C/C#N)cc1 [Example 33, (6-{2-[4-((E)-2-Cyano-ethenesulfonyl)-phenyl]-2-methyl-propionylamino}-hexyl)-carbamic acid tert-butyl ester] | < 10 | 50 to 85 | 10 to 50 |  |
| CC(C)(C(=O)NCc1ccccc1F)c1ccc(S(=O)(=O)/C=C/C#N)cc1 [Example 40, 2-[4-((E)-2-Cyano-ethenesulfonyl)-phenyl]-N-(2-fluoro-benzyl)-isobutyramide] | 50 to 85 | > 85 | > 85 |  |
| CN(Cc1ccc(F)cc1)C(=O)C(C)(C)c1ccc(S(=O)(=O)/C=C/C#N)cc1 [Example 41, 2-[4-((E)-2-Cyano-ethenesulfonyl)-phenyl]-N-(4-fluoro-benzyl)-N-methyl-isobutyramide] | 50 to 85 | > 85 | > 85 |  |
| COCCOc1cccc(NC(=O)C(C)(C)c2ccc(S(=O)(=O)/C=C/C#N)cc2)c1 [Example 42, 2-[4-((E)-2-Cyano-ethenesulfonyl)-phenyl]-N-[3-(2-methoxy-ethoxy)-phenyl]-isobutyramide] | 50 to 85 | > 85 | 50 to 85 |  |
| CC(C)(C(=O)Nc1cccc(OCC(=O)O)c1)c1ccc(S(=O)(=O)/C=C/C#N)cc1 [Example 43, (3-{2-[4-((E)-2-Cyano-ethenesulfonyl)-phenyl]-2-methyl-propionylamino}-phenoxy)-acetic acid] | < 10 | < 10 | < 10 |  |
| COc1cccc(CNC(=O)C(C)(C)c2ccc(S(=O)(=O)/C=C/C#N)cc2)c1 [Example 44, 2-[4-((E)-2-Cyano-ethenesulfonyl)-phenyl]-N-(3-methoxy-benzyl)-isobutyramide] | 50 to 85 | > 85 | > 85 |  |
| COc1ccccc1CNC(=O)C(C)(C)c1ccc(S(=O)(=O)/C=C/C#N)cc1 [Example 45, 2-[4-((E)-2-Cyano-ethenesulfonyl)-phenyl]-N-(2-methoxy-benzyl)-isobutyramide] | 50 to 85 | > 85 | > 85 |  |
| COc1ccccc1CN(C)C(=O)C(C)(C)c1ccc(S(=O)(=O)/C=C/C#N)cc1 [Example 46, 2-[4-((E)-2-Cyano-ethenesulfonyl)-phenyl]-N-(2-methoxy-benzyl)-N-methyl-isobutyramide] | 50 to 85 | > 85 | > 85 |  |
| CC(C)(c1ccc(S(=O)(=O)/C=C/C#N)cc1)c1nnc(Nc2ccccc2)o1 [Example 47, (E)-3-{4-[1-Methyl-1-(5-phenylamino-[1,3,4]oxadiazol-2-yl)-ethyl]-benzenesulfonyl}-acrylonitrile] | 10 to 50 |  | 50 to 85 | 50 to 85 |
| CCNc1nnc(C(C)(C)c2ccc(S(=O)(=O)/C=C/C#N)cc2)o1 [Example 48, (E)-3-{4-[1-(5-Ethylamino-[1,3,4]oxadiazol-2-yl)-1-methyl-ethyl]-benzenesulfonyl}-acrylonitrile] | < 10 |  | < 10 | 10 to 50 |
| CC(C)(c1ccc(S(=O)(=O)/C=C/C#N)cc1)c1nc2ccccc2[nH]1 [Example 49, (E)-3-{4-[1-(1H-Benzimidazol-2-yl)-1-methyl-ethyl]-benzenesulfonyl}-acrylonitrile] | < 10 |  | < 10 | < 10 |
| Cc1ccc2oc(C(C)(C)c3ccc(S(=O)(=O)/C=C/C#N)cc3)nc2c1 [Example 50, (E)-3-{4-[1-Methyl-1-(5-methyl-benzoxazol-2-yl)-ethyl]-benzenesulfonyl}-acrylonitrile] | 50 to 85 | > 85 | > 85 |  |
| Cc1cnc(C(C)(C)c2ccc(S(=O)(=O)/C=C/C#N)cc2)o1 [Example 51, (E)-3-{4-[1-Methyl-1-(5-methyl-oxazol-2-yl)-ethyl]-benzenesulfonyl}-acrylonitrile] | 50 to 85 | > 85 | > 85 |  |
| CC(C)(C(=O)NNC(=O)C1CCCCC1)c1ccc(S(=O)(=O)/C=C/C#N)cc1 [Example 52, Cyclohexanecarboxylic acid N′-{2-[4-((E)-2-cyano-ethenesulfonyl)-phenyl]-2-methyl-propionyl}-hydrazide] | 10 to 50 | 50 to 85 | < 10 |  |
| CC(C)(c1ccc(S(=O)(=O)/C=C/C#N)cc1)c1nnc(C2CCCCC2)o1 [Example 53, (E)-3-{4-[1-(5-Cyclohexyl-[1,3,4]oxadiazol-2-yl)-1-methyl-ethyl]-benzenesulfonyl}-acrylonitrile] | 50 to 85 | > 85 | > 85 |  |
